Key:
[1] = background statement, cited from earlier work
[2] = test system: sphingomyleinase activity of mmLDL-stimulated monocytes; test: Sphingomyelinase activity in mmLDL-stimulated human monocytes; type: cell-based; conditions: compound 13 0.1-0 μm, 30 min pretreatment, then mmLDL 4 hours; average of 5 experiments; values only in FIG. 4
Description: Average values from 5 individual experiments.
90 nM BODIPY-FL-C5 sphingomylein (molecular probes) are dissolved in 200 μl ethanol, then injected into 10 ml PBS containing 0.75 mg/ml BSA. The solution is dialyzed extensively against PBS, the resulting dialyzate is sterile-filtered and diluted 1:1 using RPMI medium. Together with the solution a monolayer of human monocytes' is incubated with 5% CO2 at 37° C. for 4 hours, washed twice with 5 ml PBS, admixed with new medium and then incubated at the corresponding concentrations of compound (13) for 30 minutes. The pretreated cells are treated with slightly modified low-density lipoprotein (mmLDL)^10 for 4 hours and extracted according to Bligh and Dyer^11. The enzyme activity is determined by the ratio of BODIPY-FL-C5—sphingomyelin to BODIPY-FL-C5 ceramide^12.

[3] = Chemical, acid and redox stability; type: physicochemical
[4] = test system: human monocytes; test: Antiapoptotic activity in TNFα-treated human monocytes (YOPRO-1 staining); type: cell-based; conditions: pretreatment 30 min, 0.1 μm, then TNFα 4 hours; average of 5 experiments; values only in FIG. 3
Description: In addition, part of the cells are pretreated with compound 13 (30 min., 0.1 μm). The percentage of apoptotic cells is determined in all of the samples by YOPRO-1 staining^10. Average values from 5 experiments.

Row | Inhibitory effect on the sphingomyleinase activity [2] | Chemical stability (e.g. stability in acidic solutions) ([3]; epoxide-free analogues, compared with natural scyphostatin) | Stability at pH 2 ([3]; pH values of 2 at 40° C. for a period of several hours) | Structure (SMILES) | Chemical and metabolic stability ([1]; natural scyphostatin) | Stability in acid ([1]; natural substance) | Antiapoptotic activity (percentage of apoptotic cells) [4]
1 |  |  |  | CC[C@@H](C)/C=C(\C)C[C@@H](C)C[C@@H](C)/C=C/C=C/C=C/C(=O)N[C@H](CO)C[C@@]1(O)C(=O)C=C[C@@H]2O[C@@H]21 [scyphostatin] | chemically and metabolically very unstable | unstable in acid | 
2 | Inhibitory effect | increased chemical stability | stable | CCCCCCCCCCCCCCCC(=O)N[C@H](CO)C[C@]1(O)CCC=CC1=O [compound 13, hexadecanoic acid-[1-hydroxymethyl-2-(1-hydroxy-2-oxo-cyclohex-3-enyl)ethyl]amide] |  |  | Antiapoptotic activity

Source: US6790992B2, “Scyphostatin analogues as SMase inhibitors” (Biofrontera Pharmaceuticals GmbH, priority 2002, dated 2004)
